Measurements as given in PubChem BioAssay AID1963834 (Molecular Pharmacology Branch, DTP, NCI, 2024).

Tested on: 873145-292-R-J1-PDC complex spheroid viability
Assay: Anticancer human tumor 873145-292-R-J1-PDC patient-derived renal clear cell carcinoma cell line growth inhibition [POLQ]
Details: for IC50: curve of first compound; for viability, T/C: stronger effect = lower value
Summary of the method: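 PDC + HUVEC + MSC complex spheroids; POLQ inhibitors ± partner drugs; top conc. at/near clinical Cmax, else 10 microM (SN-38 1 microM), half-log dilutions; 37 degrees C, 5% CO2.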

[1] = second compound 0.0316 µM, first compound 0.0316 µM
[2] = second compound 0.0316 µM, first compound 0.1 µM
[3] = second compound 0.0316 µM, first compound 0.316 µM
[4] = second compound 0.0316 µM, first compound 1 µM
[5] = second compound 0.0316 µM, first compound 3.16 µM
[6] = second compound 0.0316 µM, first compound 10 µM
[7] = second compound 0.1 µM, first compound 0.0316 µM
[8] = second compound 0.1 µM, first compound 0.1 µM
[9] = second compound 0.1 µM, first compound 0.316 µM
[10] = second compound 0.1 µM, first compound 1 µM
[11] = second compound 0.1 µM, first compound 3.16 µM
[12] = second compound 0.1 µM, first compound 10 µM
[13] = second compound 0.316 µM, first compound 0.0316 µM
[14] = second compound 0.316 µM, first compound 0.1 µM
[15] = second compound 0.316 µM, first compound 0.316 µM
[16] = second compound 0.316 µM, first compound 1 µM
[17] = second compound 0.316 µM, first compound 3.16 µM
[18] = second compound 0.316 µM, first compound 10 µM
[19] = second compound 1 µM, first compound 0.0316 µM
[20] = second compound 1 µM, first compound 0.1 µM
[21] = second compound 1 µM, first compound 0.316 µM
[22] = second compound 1 µM, first compound 1 µM
[23] = second compound 1 µM, first compound 3.16 µM
[24] = second compound 1 µM, first compound 10 µM
[25] = second compound 3.16 µM, first compound 0.0316 µM
[26] = second compound 3.16 µM, first compound 0.1 µM
[27] = second compound 3.16 µM, first compound 0.316 µM
[28] = second compound 3.16 µM, first compound 1 µM
[29] = second compound 3.16 µM, first compound 3.16 µM
[30] = second compound 3.16 µM, first compound 10 µM
[31] = second compound 10 µM, first compound 0.0316 µM
[32] = second compound 10 µM, first compound 0.1 µM
[33] = second compound 10 µM, first compound 0.316 µM
[34] = second compound 10 µM, first compound 1 µM
[35] = second compound 10 µM, first compound 3.16 µM
[36] = second compound 10 µM, first compound 10 µM
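Also: spheroids exposed to compounds for 7 days before viability readout.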
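For viability, T/C in this document: luminescence signal used as surrogate for viable cell content; 100% = DMSO vehicle control viability.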

## COc1cc2cc(C(=O)CCC(=O)O)sc2cc1OC + COC1C(OC(N)=O)C(O)C(Oc2ccc3c(O)c(NC(=O)c4ccc(O)c(CC=C(C)C)c4)c(=O)oc3c2C)OC1(C)C
Second compound 0.0316 µM
  IC50: > 10 µM
Second compound 0.1 µM
  IC50: > 10 µM
Second compound 0.316 µM
  IC50: > 10 µM
Second compound 1 µM
  IC50: > 10 µM
Second compound 3.16 µM
  IC50: > 10 µM
Second compound 10 µM
  IC50: > 10 µM
[1]
  viability, T/C: 106%
[2]
  viability, T/C: 93.8%
[3]
  viability, T/C: 106%
[4]
  viability, T/C: 101%
[5]
  viability, T/C: 91.8%
[6]
  viability, T/C: 94.3%
[7]
  viability, T/C: 105%
[8]
  viability, T/C: 97.7%
[9]
  viability, T/C: 94.7%
[10]
  viability, T/C: 91.7%
[11]
  viability, T/C: 108%
[12]
  viability, T/C: 102%
[13]
  viability, T/C: 107%
[14]
  viability, T/C: 93.8%
[15]
  viability, T/C: 94.7%
[16]
  viability, T/C: 89.8%
[17]
  viability, T/C: 97.6%
[18]
  viability, T/C: 94.2%
[19]
  viability, T/C: 108%
[20]
  viability, T/C: 87.4%
[21]
  viability, T/C: 109%
[22]
  viability, T/C: 100%
[23]
  viability, T/C: 102%
[24]
  viability, T/C: 92.1%
[25]
  viability, T/C: 103%
[26]
  viability, T/C: 104%
[27]
  viability, T/C: 89%
[28]
  viability, T/C: 95.1%
[29]
  viability, T/C: 100%
[30]
  viability, T/C: 98.1%
[31]
  viability, T/C: 93.4%
[32]
  viability, T/C: 88.2%
[33]
  viability, T/C: 94.5%
[34]
  viability, T/C: 97.6%
[35]
  viability, T/C: 99.2%
[36]
  viability, T/C: 96.7%

## COc1ccc([C@@H](O)c2cc(-c3ncnc4cc(N5CCOCC5)ccc34)c(F)cc2Cl)nn1 + COC1C(OC(N)=O)C(O)C(Oc2ccc3c(O)c(NC(=O)c4ccc(O)c(CC=C(C)C)c4)c(=O)oc3c2C)OC1(C)C
Second compound 0.0316 µM
  IC50: 4.41 µM
Second compound 0.1 µM
  IC50: 4.1 µM
Second compound 0.316 µM
  IC50: 3.22 µM
Second compound 1 µM
  IC50: 3.96 µM
Second compound 3.16 µM
  IC50: 6.14 µM
Second compound 10 µM
  IC50: 5.25 µM
[1]
  viability, T/C: 92%
[2]
  viability, T/C: 97.4%
[3]
  viability, T/C: 81.2%
[4]
  viability, T/C: 69.8%
[5]
  viability, T/C: 50.3%
[6]
  viability, T/C: 46.1%
[7]
  viability, T/C: 94.3%
[8]
  viability, T/C: 87.9%
[9]
  viability, T/C: 83.1%
[10]
  viability, T/C: 71.3%
[11]
  viability, T/C: 51.7%
[12]
  viability, T/C: 40.3%
[13]
  viability, T/C: 108%
[14]
  viability, T/C: 93%
[15]
  viability, T/C: 76.1%
[16]
  viability, T/C: 64.9%
[17]
  viability, T/C: 51.3%
[18]
  viability, T/C: 36.6%
[19]
  viability, T/C: 92.4%
[20]
  viability, T/C: 85.5%
[21]
  viability, T/C: 83.5%
[22]
  viability, T/C: 68.1%
[23]
  viability, T/C: 52.5%
[24]
  viability, T/C: 40.1%
[25]
  viability, T/C: 89.1%
[26]
  viability, T/C: 92.4%
[27]
  viability, T/C: 85.7%
[28]
  viability, T/C: 65.1%
[29]
  viability, T/C: 62.9%
[30]
  viability, T/C: 42.7%
[31]
  viability, T/C: 99.1%
[32]
  viability, T/C: 90%
[33]
  viability, T/C: 88.7%
[34]
  viability, T/C: 70.4%
[35]
  viability, T/C: 58.9%
[36]
  viability, T/C: 39.9%
